Test results taken from PubChem BioAssay (NCI).
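These data come from cells grown in 96-well plates and exposed to compound for 48 hours at five concentrations. GI50 = concentration required for 50% inhibition of growth. TGI: concentration producing complete growth inhibition.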

Key:
Test in all cases: NCI-60 cell line screen, 48 h
U251 CNS = system: U251 CNS
NCI-H23 lung = system: NCI-H23 lung
SN12C renal = system: SN12C renal
KM12 colon = system: KM12 colon
EKVX NSCLC = system: EKVX NSCLC
MALME-3M melanoma = system: MALME-3M melanoma
OVCAR-8 ovarian = system: OVCAR-8 ovarian
SNB-19 CNS = system: SNB-19 CNS
MCF7 breast = system: MCF7 breast
DU-145 prostate = system: DU-145 prostate

| SMILES | TGI (U251 CNS) | TGI (NCI-H23 lung) | TGI (SN12C renal) | TGI (KM12 colon) | TGI (EKVX NSCLC) | TGI (MALME-3M melanoma) | TGI (OVCAR-8 ovarian) | TGI (SNB-19 CNS) | GI50 (U251 CNS) | GI50 (NCI-H23 lung) | GI50 (SN12C renal) | GI50 (KM12 colon) | GI50 (EKVX NSCLC) | GI50 (MALME-3M melanoma) | GI50 (OVCAR-8 ovarian) | GI50 (SNB-19 CNS) | GI50 (MCF7 breast) | TGI (MCF7 breast) | GI50 (DU-145 prostate) | TGI (DU-145 prostate) |
| --- | --- | --- | --- | --- | --- | --- | --- | --- | --- | --- | --- | --- | --- | --- | --- | --- | --- | --- | --- | --- |
| CCCCCCCCCCCCNC(=S)OC | 29.5 µM | 34 µM | 27.3 µM | 29.6 µM | 36.6 µM | 29.5 µM | 29.7 µM | 69.8 µM | – | – | – | – | – | – | – | – | – | – | – | – |
| [O-][Cl+3]([O-])([O-])[O-].[O]=[Ru]=[O].c1ccc(-c2ccccn2)nc1.c1ccc(-c2ccccn2)nc1 | > 100 µM | > 100 µM | > 100 µM | > 100 µM | > 100 µM | > 100 µM | > 100 µM | > 100 µM | > 100 µM | > 100 µM | 50.9 µM | > 100 µM | > 100 µM | > 100 µM | > 100 µM | 65.2 µM | – | – | – | – |
| CCOC(=O)C1=C(C)N(NC(=O)Nc2ccccc2)C2(N)N(NC(=O)Nc3ccccc3)C(C)=C(C(=O)OCC)C12C(=O)OCC (configuration not stated) | > 100 µM | > 100 µM | 3.01 µM | > 100 µM | > 100 µM | 93.5 µM | > 100 µM | > 100 µM | – | – | – | – | – | – | – | – | – | – | – | – |
| Cc1ccc(S(=O)(=O)N2CCC2c2ccccc2)cc1 (configuration not stated) | > 100 µM | > 100 µM | > 100 µM | > 100 µM | > 100 µM | > 100 µM | > 100 µM | > 100 µM | – | – | – | – | – | – | – | – | – | – | – | – |
| COc1cc2c(cc1OC)-c1cc(OC)c(OC)cc1C(CN(C)C)C2 (configuration not stated) | > 10 µM | > 10 µM | > 10 µM | > 10 µM | – | > 10 µM | > 10 µM | > 10 µM | > 10 µM | > 10 µM | > 10 µM | > 10 µM | – | > 10 µM | > 10 µM | > 10 µM | > 10 µM | > 10 µM | > 10 µM | > 10 µM |
| O=C(NC1CCCCC1)NS(=O)(=O)c1ccc(N2N=C3c4ccccc4CC3C2c2ccc(Cl)cc2)cc1 (configuration not stated) | 21.7 µM | 36.2 µM | 32.6 µM | 27.9 µM | 22.8 µM | – | 71.7 µM | 97.5 µM | 10.1 µM | 12.2 µM | 16.8 µM | 7.9 µM | 5.38 µM | – | 19.6 µM | 21.6 µM | 2.52 µM | 22.2 µM | 5.5 µM | 21.1 µM |
| O=c1c2cccnc2ncn1CCN1CCCCC1 | > 100 µM | > 100 µM | > 100 µM | > 100 µM | > 100 µM | > 100 µM | > 100 µM | > 100 µM | – | – | – | – | – | – | – | – | – | – | – | – |
| O=S1C(=c2ccc(=C3Sc4ccccc4S3)cc2)Sc2ccccc21 (configuration not stated) | 28.2 µM | 30.2 µM | 29.3 µM | 31.4 µM | 34.2 µM | > 100 µM | 34.4 µM | 30.7 µM | – | – | – | – | – | – | – | – | – | – | – | – |
| COc1ccc(C(c2cc(OC)c(OC)c(OC)c2)n2cncn2)cc1O (configuration not stated) | > 100 µM | > 100 µM | > 100 µM | > 100 µM | > 100 µM | – | > 100 µM | > 100 µM | 0.446 µM | 0.977 µM | 0.853 µM | 0.418 µM | 2.24 µM | – | 1.14 µM | 0.578 µM | 0.347 µM | > 100 µM | 0.531 µM | > 100 µM |
| CCCOc1nc(N)c2cnn(C3CCCCO3)c2n1 (configuration not stated) | > 100 µM | > 100 µM | > 100 µM | > 100 µM | > 100 µM | > 100 µM | > 100 µM | > 100 µM | – | – | – | – | – | – | – | – | – | – | – | – |
| C[C@@H]1CC[C@H]2C(C)(C)[C@H]3C[C@@]12CC[C@@]3(C)O | – | > 100 µM | 60.5 µM | > 100 µM | > 100 µM | – | > 100 µM | > 100 µM | – | – | – | – | – | – | – | – | – | > 100 µM | – | > 100 µM |
| NC(=S)N/N=C\c1nccc2c(C(F)(F)F)cccc12 | 8.4 µM | > 49 µM | 12.4 µM | 16.9 µM | – | > 34.5 µM | 24 µM | > 100 µM | 0.224 µM | 0.446 µM | 0.31 µM | 0.356 µM | – | 0.435 µM | 0.308 µM | 0.382 µM | 0.317 µM | 13.3 µM | 0.292 µM | > 39.3 µM |
| CN(C)CC1CCC/C1=N/OC(=O)c1ccccc1 (configuration not stated) | > 100 µM | > 100 µM | > 100 µM | – | – | – | > 100 µM | – | – | – | – | – | – | – | – | – | – | – | – | – |
| CC#Cc1ccc(-c2ccccc2)s1 | > 100 µM | > 100 µM | > 100 µM | > 100 µM | > 100 µM | – | > 100 µM | > 100 µM | – | – | – | – | – | – | – | – | – | > 100 µM | – | > 100 µM |
| O=c1[nH]c(-c2ccccc2)nc2cc(Cl)ccc12 | > 100 µM | > 100 µM | – | > 100 µM | > 100 µM | > 100 µM | > 100 µM | – | – | – | – | – | – | – | – | – | – | – | – | – |
| CN(C)C(=S)/N=c1\ssc(=S)n1C1CCCCC1 | 37.9 µM | > 100 µM | > 100 µM | > 100 µM | > 100 µM | 64.8 µM | 53.9 µM | > 100 µM | – | – | – | – | – | – | – | – | – | – | – | – |
| O=C(/C=C/c1c(O)ccc2ccccc12)c1ccc([N+](=O)[O-])cc1 | > 100 µM | 60.3 µM | 39.7 µM | > 100 µM | > 100 µM | 49.7 µM | > 61.6 µM | > 100 µM | – | – | – | – | – | – | – | – | – | – | – | – |
| CC(C)[C@@H]1NC(=O)[C@]2(C)CSC(=N2)c2ccnc(c2)CNC(=O)C[C@@H](/C=C/CCS)OC1=O | 0.73 µM | > 31.4 µM | > 100 µM | > 86.1 µM | > 100 µM | – | > 100 µM | > 39.4 µM | 0.107 µM | 0.303 µM | 0.711 µM | 0.0857 µM | 0.234 µM | – | 0.128 µM | 0.283 µM | 0.708 µM | > 100 µM | 0.231 µM | > 100 µM |
| Cc1nnc2ccnn2c1C | > 100 µM | – | > 100 µM | > 100 µM | 0.962 µM | – | > 100 µM | > 100 µM | > 100 µM | – | > 100 µM | > 100 µM | – | – | > 100 µM | > 100 µM | > 100 µM | > 100 µM | > 100 µM | > 100 µM |
